Molecular target: T1, PDK-1 (Homo sapiens, UniProt O15530)
T1 sequence (O15530 1-556): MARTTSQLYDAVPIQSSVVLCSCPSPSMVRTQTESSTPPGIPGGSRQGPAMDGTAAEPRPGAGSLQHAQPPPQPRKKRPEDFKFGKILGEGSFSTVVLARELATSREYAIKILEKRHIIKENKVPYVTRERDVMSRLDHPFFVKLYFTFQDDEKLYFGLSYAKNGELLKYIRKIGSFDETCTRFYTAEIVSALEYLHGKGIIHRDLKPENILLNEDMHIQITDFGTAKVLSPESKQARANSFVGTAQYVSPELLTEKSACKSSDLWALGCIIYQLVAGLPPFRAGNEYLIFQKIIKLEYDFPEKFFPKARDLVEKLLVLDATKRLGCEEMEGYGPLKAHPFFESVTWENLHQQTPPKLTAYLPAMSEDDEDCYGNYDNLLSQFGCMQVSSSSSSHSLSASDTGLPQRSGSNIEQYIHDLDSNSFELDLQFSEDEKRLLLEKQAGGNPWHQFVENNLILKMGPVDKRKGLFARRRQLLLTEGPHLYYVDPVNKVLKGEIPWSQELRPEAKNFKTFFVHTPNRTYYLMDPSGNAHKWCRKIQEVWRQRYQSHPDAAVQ
Assay: PDK-1 kinase inhibition ELISA assay (phosphorylation of His6-tagged SGK1 S422D by PDK-1)
Assay type: biochemical
Conditions: in vitro ELISA; phosphorylation of His6-tagged SGK1 (S422D) on Thr256 by PDK-1, 20 minutes, chemiluminescent detection
Method: The ability of an illustrative Pyrimido[5,4-c]quinoline-2,4-diamine Derivative to inhibit PDK-1 in vitro can be determined using an ELISA assay as described in Kobayashi et al., Biochem. J. 339:319-328 (1999) and Park et al., EMBO J. 18:3024-3033 (1999).
In an in vitro assay, His6-tagged SGK1 with S422D mutation (formerly Upstate Biotech, now Millipore) on Thr256 is allowed to be phosphorylated by PDK-1 in the presence of a Pyrimido[5,4-c]quinoline-2,4-diamine Derivative. After 20 minutes, the reaction is quenched via the addition of urea. The His6-tagged SGK1 is then bound to 96 well Ni-NTA HisSorb plates (Quiagen, Inc.) and phosphorylated SGK1 is quantitatively detected using rabbit derived anti-phospho SGK antibody (Cell Signaling Technology) as the primary antibody and horseradish peroxidase (HRP)— coupled anti-rabbit antibody (formerly Zymed, now Invitrogen) as the secondary antibody. HRP is then detected using a chemiluminescent substrate (Pierce Chemical Co.).
IC50 values of illustrative Pyrimido[5,4-c]quinoline-2,4-diamine Derivatives, shown in Table 4, are calculated using LSW Data Analysis package add-in for Excel (Microsoft).

Row | SMILES | IC50 [µM]
1 | COCCOc1cc2ncc3c(N)nc(N4CCC(O)C4)nc3c2cc1OC (stereo not shown) [Compound Ia-6, 1-[4-Amino-9-methoxy-8-(2-methoxyethoxy)pyrimido[5,4-c]quinolin-2-yl]pyrrolidin-3-ol] | 36.3
2 | COc1cc2ncc3c(N)nc(N)nc3c2cc1OC [Ia-1, 8,9-dimethoxypyrimido[5,4-c]quinoline-2,4-diamine] | 12.2
3 | CCOc1cc2ncc3c(N)nc(N)nc3c2cc1OCC [Ia-2, 8,9-diethoxypyrimido[5,4-c]quinoline-2,4-diamine] | 18
4 | CCOc1cc2ncc3c(N)nc(N4CCOCC4)nc3c2cc1OCC [Ia-4, 8,9-diethoxy-2-morpholin-4-ylpyrimido[5,4-c]quinolin-4-amine] | 55.7
5 | COCCOc1cc2ncc3c(N)nc(N4CCOCC4)nc3c2cc1OC [Ia-5, 9-methoxy-8-(2-methoxyethoxy)-2-morpholin-4-ylpyrimido[5,4-c]quinolin-4-amine] | > 200
6 | COCCOc1cc2ncc3c(N)nc(N4CCN(C)CC4)nc3c2cc1OC [Ia-7, 9-methoxy-8-(2-methoxyethoxy)-2-(4-methylpiperazin-1-yl)pyrimido[5,4-c]quinolin-4-amine] | > 200
7 | COCCOc1cc2ncc3c(N)nc(N(C)C)nc3c2cc1OC [Ia-8, 9-methoxy-8-(2-methoxyethoxy)-N2,N2-dimethylpyrimido[5,4-c]quinoline-2,4-diamine] | 9.33
8 | CCNc1nc(N)c2cnc3cc(OCCOC)c(OC)cc3c2n1 [Ia-9, N2-ethyl-9-methoxy-8-(2-methoxyethoxy)pyrimido[5,4-c]quinoline-2,4-diamine] | > 200
9 | COCCOc1cc2ncc3c(N)nc(N4CCC5(CC4)OCCO5)nc3c2cc1OC [Ia-10, 2-(1,4-dioxa-8-azaspiro[4.5]dec-8-yl)-9-methoxy-8-(2-methoxyethoxy)pyrimido[5,4-c]quinolin-4-amine] | 50.5
10 | COCCOc1cc2ncc3c(N)nc(N4CCC(=O)CC4)nc3c2cc1OC [Ia-13, 1-[4-amino-9-methoxy-8-(2-methoxyethoxy)pyrimido[5,4-c]quinolin-2-yl]piperidin-4-one] | > 200
11 | COCCOc1cc2ncc3c(N)nc(N4CCCC4)nc3c2cc1OC [Ia-14, 9-methoxy-8-(2-methoxyethoxy)-2-pyrrolidin-1-ylpyrimido[5,4-c]quinolin-4-amine] | 6.55
12 | COCCOc1cc2ncc3c(N)nc(N4CCC[C@@H]4COC)nc3c2cc1OC [Ia-15, 9-methoxy-8-(2-methoxyethoxy)-2-[(2R)-2-(methoxymethyl)pyrrolidin-1-yl]pyrimido[5,4-c]quinolin-4-amine] | 2.15
13 | COCCOc1cc2ncc3c(N)nc(N4CCC[C@H]4COC)nc3c2cc1OC [Ia-16, 9-methoxy-8-(2-methoxyethoxy)-2-[(2S)-2-(methoxymethyl)pyrrolidin-1-yl]pyrimido[5,4-c]quinolin-4-amine] | 39.6
14 | COCCOc1cc2ncc3c(N)nc(NC4CCCCC4)nc3c2cc1OC [Ia-17, N2-cyclohexyl-9-methoxy-8-(2-methoxyethoxy)pyrimido[5,4-c]quinoline-2,4-diamine] | 5.43
15 | COCCOc1cc2ncc3c(N)nc(N4CCN(c5ccccc5)CC4)nc3c2cc1OC [Ia-18, 9-methoxy-8-(2-methoxyethoxy)-2-(4-phenylpiperazin-1-yl)pyrimido[5,4-c]quinolin-4-amine] | 111
16 | COCCOc1cc2ncc3c(N)nc(N4CCOc5ccccc5C4)nc3c2cc1OC [Ia-20, 2-(2,3-dihydro-1,4-benzoxazepin-4(5H)-yl)-9-methoxy-8-(2-methoxyethoxy)pyrimido[5,4-c]quinolin-4-amine] | 83.1
